In ChEMBL document CHEMBL1141785, “Cimipronidine, a cyclic guanidine alkaloid from Cimicifuga racemosa” (J Nat Prod, 2005):
Activity calls are given as the source filed them. No cut-off for these calls is given here.

Target: 5-hydroxytryptamine receptor 7 (Homo sapiens) (UniProt P34969)
Test: Binding affinity to 5HT7 receptor

Chain of 5-hydroxytryptamine receptor 7 (Homo sapiens) (P34969 whole entry): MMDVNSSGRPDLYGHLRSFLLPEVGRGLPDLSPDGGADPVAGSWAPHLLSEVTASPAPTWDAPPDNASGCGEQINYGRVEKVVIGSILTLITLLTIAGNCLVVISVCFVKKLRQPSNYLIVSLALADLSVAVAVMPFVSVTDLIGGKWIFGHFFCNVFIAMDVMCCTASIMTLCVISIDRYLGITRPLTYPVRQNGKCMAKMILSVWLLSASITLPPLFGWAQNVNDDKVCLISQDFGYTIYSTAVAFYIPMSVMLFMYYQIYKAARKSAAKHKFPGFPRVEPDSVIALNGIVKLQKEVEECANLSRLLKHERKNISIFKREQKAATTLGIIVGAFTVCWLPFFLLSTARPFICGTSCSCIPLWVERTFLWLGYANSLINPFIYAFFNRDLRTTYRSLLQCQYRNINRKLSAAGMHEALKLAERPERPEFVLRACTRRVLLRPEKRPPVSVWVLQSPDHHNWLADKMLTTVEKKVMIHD

Row | Structure (SMILES) | Activity
1 | O=C(/C=C/c1ccc(O)c(O)c1)O[C@H](C(=O)O)[C@](O)(Cc1ccc(O)c(O)c1)C(=O)O | Active
2 | N=C(N)N1CCCC1CC(=O)O (configuration not stated) | Active
